“And” between values parts separate entries of the source, which are not always exact repeats. Equal values may be shown once. Records with an inconclusive call do not appear.
Test system: mice, P1798 lymphosarcoma sc, survival or tumor weight T/C
Assay: NCI In Vivo Anticancer Drug Screen. Data for tumor model P1798 Lymphosarcoma (subcutaneous) in unknown mice
Description: The antitumor activity of compounds was measured in mice bearing transplantable tumors. Survival or tumor size were measured and the results are expressed as the measurement made in the treated group (T) divided by the measurement made in the vehicle treated control group (C). The tumor model used in this assay is P1798 Lymphosarcoma (subcutaneous) in unknown mice

[1] = endpoint: mean tumor weight, dose: 31.0 mg/kg/injection, schedule: Q01DX010 (ip), vehicle: carboxymethylcellulose (CMC), higher = larger tumour
[2] = endpoint: mean tumor weight, dose: 25.0 mg/kg/injection, schedule: Q01DX010 (ip), vehicle: carboxymethylcellulose (CMC), higher = larger tumour
[3] = endpoint: mean tumor weight, dose: 50.0 mg/kg/injection, schedule: Q01DX010 (ip), vehicle: carboxymethylcellulose (CMC), higher = larger tumour
[4] = endpoint: mean tumor weight, dose: 12.5 mg/kg/injection, schedule: Q01DX010 (ip), vehicle: saline, higher = larger tumour
[5] = endpoint: mean tumor weight, dose: 100.0 mg/kg/injection, schedule: Q01DX010 (ip), vehicle: carboxymethylcellulose (CMC), higher = larger tumour
[6] = endpoint: mean tumor weight, dose: 6.25 mg/kg/injection, schedule: Q01DX010 (ip), vehicle: carboxymethylcellulose (CMC), higher = larger tumour
[7] = endpoint: mean tumor weight, dose: 12.5 mg/kg/injection, schedule: Q01DX010 (ip), vehicle: carboxymethylcellulose (CMC), higher = larger tumour

C=CC(CN1CC1)OC(C)=O (stereo unspecified)
T/C (endpoint: mean tumor weight, dose: 4.0 mg/kg/injection, schedule: Q01DX010 (ip), vehicle: saline, higher = larger tumour): 71 % of control
T/C (endpoint: mean tumor weight, dose: 6.0 mg/kg/injection, schedule: Q01DX010 (ip), vehicle: saline, higher = larger tumour): 64 % of control
T/C (endpoint: mean tumor weight, dose: 8.0 mg/kg/injection, schedule: Q01DX010 (ip), vehicle: saline, higher = larger tumour): 42 % of control

OCC1OC(n2cnc3c(=S)nc[nH]c32)C(O)C1O (stereo unspecified)
T/C (endpoint: mean tumor weight, dose: 4.0 mg/kg/injection, schedule: Q01DX010 (ip), vehicle: carboxymethylcellulose (CMC), higher = larger tumour): 115 % of control
T/C (endpoint: mean tumor weight, dose: 8.0 mg/kg/injection, schedule: Q01DX010 (ip), vehicle: carboxymethylcellulose (CMC), higher = larger tumour): 67 % of control
T/C (endpoint: mean tumor weight, dose: 16.0 mg/kg/injection, schedule: Q01DX010 (ip), vehicle: carboxymethylcellulose (CMC), higher = larger tumour): 45 % of control
T/C [1]: 82 % of control

CN(C)c1ccc(Nc2c3ccccc3nc3ccccc23)cc1
T/C (endpoint: mean tumor weight, dose: 3.15 mg/kg/injection, schedule: Q01DX010 (ip), vehicle: carboxymethylcellulose (CMC), higher = larger tumour): 84 % of control
T/C (endpoint: mean tumor weight, dose: 6.3 mg/kg/injection, schedule: Q01DX010 (ip), vehicle: carboxymethylcellulose (CMC), higher = larger tumour): 86 % of control
T/C [2]: 36 % of control
T/C [3]: 10 % of control

CCn1cnc2c(=S)nc[nH]c21
T/C (endpoint: mean tumor weight, dose: 7.75 mg/kg/injection, schedule: Q01DX010 (ip), vehicle: carboxymethylcellulose (CMC), higher = larger tumour): 117 % of control
T/C (endpoint: mean tumor weight, dose: 15.5 mg/kg/injection, schedule: Q01DX010 (ip), vehicle: carboxymethylcellulose (CMC), higher = larger tumour): 95 % of control
T/C [1]: 82 % of control

O=c1[nH]cc(F)c(=O)[nH]1
T/C (endpoint: mean tumor weight, dose: 2.0 mg/kg/injection, schedule: Q01DX010 (ip), vehicle: saline, higher = larger tumour): 119 % of control
T/C (endpoint: mean tumor weight, dose: 2.5 mg/kg/injection, schedule: Q01DX015 (ip), vehicle: carboxymethylcellulose (CMC), higher = larger tumour): 108 % of control
T/C (endpoint: mean tumor weight, dose: 5.0 mg/kg/injection, schedule: Q01DX010 (ip), vehicle: saline, higher = larger tumour): 36 % of control
T/C (endpoint: mean tumor weight, dose: 6.3 mg/kg/injection, schedule: Q01DX010 (ip), vehicle: saline, higher = larger tumour): 44 % of control
T/C (endpoint: mean tumor weight, dose: 10.0 mg/kg/injection, schedule: Q01DX015 (ip), vehicle: carboxymethylcellulose (CMC), higher = larger tumour): 119 % of control
T/C [4]: 27 % of control
T/C (endpoint: mean tumor weight, dose: 40.0 mg/kg/injection, schedule: Q01DX001 (ip), vehicle: carboxymethylcellulose (CMC), higher = larger tumour): 71 % of control
T/C (endpoint: mean tumor weight, dose: 80.0 mg/kg/injection, schedule: Q01DX001 (ip), vehicle: carboxymethylcellulose (CMC), higher = larger tumour): 69 % of control
T/C (endpoint: median survival time, dose: 5.0 mg/kg/injection, schedule: Q01DX010 (ip), vehicle: saline, higher = longer survival): 97 % of control and 103 % of control (2×)
T/C (endpoint: median survival time, dose: 10.0 mg/kg/injection, schedule: Q01DX010 (ip), vehicle: saline, higher = longer survival): 117 % of control (2×) and 103 % of control
T/C (endpoint: median survival time, dose: 20.0 mg/kg/injection, schedule: Q01DX010 (ip), vehicle: saline, higher = longer survival): 116 % of control and 39 % of control
T/C (endpoint: median survival time, dose: 40.0 mg/kg/injection, schedule: Q01DX010 (ip), vehicle: saline, higher = longer survival): 24 % of control and 28 % of control
T/C (endpoint: median survival time, dose: 80.0 mg/kg/injection, schedule: Q01DX010 (ip), vehicle: saline, higher = longer survival): 26 % of control

C[C@@H]1C[C@H]2CC[C@H](O2)[C@H](C)C(=O)O[C@@H](C)C[C@@H]2CC[C@@H](O2)[C@@H](C)C(=O)O[C@H](C)C[C@H]2CC[C@H](O2)[C@H](C)C(=O)O[C@@H](C)C[C@@H]2CC[C@@H](O2)[C@@H](C)C(=O)O1
T/C (endpoint: mean tumor weight, dose: 45.0 mg/kg/injection, schedule: Q01DX011 (ip), vehicle: other, higher = larger tumour): 93 % of control
T/C (endpoint: mean tumor weight, dose: 90.0 mg/kg/injection, schedule: Q01DX011 (ip), vehicle: other, higher = larger tumour): 89 % of control
T/C (endpoint: mean tumor weight, dose: 180.0 mg/kg/injection, schedule: Q01DX011 (ip), vehicle: other, higher = larger tumour): 83 % of control
T/C (endpoint: mean tumor weight, dose: 360.0 mg/kg/injection, schedule: Q01DX011 (ip), vehicle: other, higher = larger tumour): 61 % of control

CC(=O)[C@H]1CC[C@H]2[C@@H]3C[C@H](C)C4=CC(=O)CC[C@]4(C)[C@H]3C(=O)C[C@]12C
T/C (endpoint: mean tumor weight, dose: 12.5 mg/kg/injection, schedule: Q01DX010 (sc), vehicle: carboxymethylcellulose (CMC), higher = larger tumour): 101 % of control
T/C (endpoint: mean tumor weight, dose: 25.0 mg/kg/injection, schedule: Q01DX010 (sc), vehicle: carboxymethylcellulose (CMC), higher = larger tumour): 100 % of control
T/C (endpoint: mean tumor weight, dose: 50.0 mg/kg/injection, schedule: Q01DX010 (sc), vehicle: carboxymethylcellulose (CMC), higher = larger tumour): 115 % of control
T/C (endpoint: mean tumor weight, dose: 100.0 mg/kg/injection, schedule: Q01DX010 (sc), vehicle: carboxymethylcellulose (CMC), higher = larger tumour): 112 % of control
T/C (endpoint: mean tumor weight, dose: 200.0 mg/kg/injection, schedule: Q01DX010 (sc), vehicle: carboxymethylcellulose (CMC), higher = larger tumour): 117 % of control
T/C (endpoint: mean tumor weight, dose: 400.0 mg/kg/injection, schedule: Q01DX010 (sc), vehicle: carboxymethylcellulose (CMC), higher = larger tumour): 108 % of control

COS(C)(=O)=O
T/C [4]: 98 % of control
T/C (endpoint: mean tumor weight, dose: 25.0 mg/kg/injection, schedule: Q01DX010 (ip), vehicle: saline, higher = larger tumour): 80 % of control
T/C (endpoint: mean tumor weight, dose: 50.0 mg/kg/injection, schedule: Q01DX010 (ip), vehicle: saline, higher = larger tumour): 81 % of control
T/C (endpoint: mean tumor weight, dose: 100.0 mg/kg/injection, schedule: Q01DX010 (ip), vehicle: saline, higher = larger tumour): 57 % of control

CSc1ncnc2nc[nH]c12
T/C [2]: 45 % of control
T/C [3]: 61 % of control
T/C [5]: 56 % of control

CS(=O)(=O)OCCCCOS(C)(=O)=O
T/C (endpoint: mean tumor weight, dose: 2.0 mg/kg/injection, schedule: Q01DX010 (ip), vehicle: methylcellulose (MC), higher = larger tumour): 74 % of control and 85 % of control
T/C (endpoint: mean tumor weight, dose: 4.0 mg/kg/injection, schedule: Q01DX010 (ip), vehicle: methylcellulose (MC), higher = larger tumour): 95 % of control
T/C (endpoint: mean tumor weight, dose: 8.0 mg/kg/injection, schedule: Q01DX010 (ip), vehicle: methylcellulose (MC), higher = larger tumour): 117 % of control and 92 % of control
T/C (endpoint: mean tumor weight, dose: 16.0 mg/kg/injection, schedule: Q01DX010 (ip), vehicle: methylcellulose (MC), higher = larger tumour): 50 % of control

S=c1nc[nH]c2nc[nH]c12
T/C (endpoint: mean tumor weight, dose: 3.12 mg/kg/injection, schedule: Q01DX010 (ip), vehicle: other, higher = larger tumour): 103 % of control
T/C (endpoint: mean tumor weight, dose: 6.25 mg/kg/injection, schedule: Q01DX010 (ip), vehicle: other, higher = larger tumour): 83 % of control
T/C (endpoint: mean tumor weight, dose: 12.5 mg/kg/injection, schedule: Q01DX010 (ip), vehicle: other, higher = larger tumour): 74 % of control and 77 % of control and 88 % of control
T/C (endpoint: mean tumor weight, dose: 18.7 mg/kg/injection, schedule: Q01DX010 (ip), vehicle: other, higher = larger tumour): 45 % of control
T/C (endpoint: mean tumor weight, dose: 34.0 mg/kg/injection, schedule: Q01DX001 (ip), vehicle: carboxymethylcellulose (CMC), higher = larger tumour): 92 % of control

Nc1nc2n[nH]nc2c(=O)[nH]1
T/C (endpoint: mean tumor weight, dose: 50.0 mg/kg/injection, schedule: Q01DX010 (ip), vehicle: other, higher = larger tumour): 67 % of control and 71 % of control and 88 % of control
T/C (endpoint: mean tumor weight, dose: 200.0 mg/kg/injection, schedule: Q01DX010 (ip), vehicle: other, higher = larger tumour): 46 % of control

CC[C@]1(O)C[C@H]2CN(CCc3c([nH]c4ccccc34)[C@@](C(=O)OC)(c3cc4c(cc3OC)N(C=O)[C@H]3[C@@](O)(C(=O)OC)[C@H](OC(C)=O)[C@]5(CC)C=CCN6CC[C@]43[C@@H]65)C2)C1
T/C (endpoint: mean tumor weight, dose: 0.01 mg/kg/injection, schedule: Q01DX010 (ip), vehicle: water, higher = larger tumour): 105 % of control
T/C (endpoint: mean tumor weight, dose: 0.03 mg/kg/injection, schedule: Q01DX010 (ip), vehicle: water, higher = larger tumour): 105 % of control
T/C (endpoint: mean tumor weight, dose: 0.1 mg/kg/injection, schedule: Q01DX001 (ip), vehicle: saline, higher = larger tumour): 120 % of control
T/C (endpoint: mean tumor weight, dose: 0.3 mg/kg/injection, schedule: Q01DX001 (ip), vehicle: saline, higher = larger tumour): 45 % of control
T/C (endpoint: mean tumor weight, dose: 0.5 mg/kg/injection, schedule: Q01DX001 (ip), vehicle: saline, higher = larger tumour): 40 % of control
T/C (endpoint: mean tumor weight, dose: 0.68 mg/kg/injection, schedule: Q01DX001 (ip), vehicle: saline, higher = larger tumour): 10 % of control
T/C (endpoint: mean tumor weight, dose: 0.7 mg/kg/injection, schedule: Q01DX001 (ip), vehicle: saline, higher = larger tumour): 36 % of control
T/C (endpoint: mean tumor weight, dose: 1.35 mg/kg/injection, schedule: Q01DX001 (ip), vehicle: saline, higher = larger tumour): 3 % of control
T/C (endpoint: mean tumor weight, dose: 125.0 micrograms/kg/injection, schedule: Q01DX010 (ip), vehicle: water, higher = larger tumour): 16 % of control

O=C(O)c1ccc(-c2ccccc2)cc1
T/C (endpoint: mean tumor weight, dose: 62.5 mg/kg/injection, schedule: Q01DX010 (ip), vehicle: carboxymethylcellulose (CMC), higher = larger tumour): 101 % of control
T/C (endpoint: mean tumor weight, dose: 125.0 mg/kg/injection, schedule: Q01DX010 (ip), vehicle: carboxymethylcellulose (CMC), higher = larger tumour): 92 % of control
T/C (endpoint: mean tumor weight, dose: 250.0 mg/kg/injection, schedule: Q01DX010 (ip), vehicle: carboxymethylcellulose (CMC), higher = larger tumour): 95 % of control

CC(C)(c1ccccc1)c1ccc(O)cc1
T/C [3]: 91 % of control
T/C [5]: 109 % of control
T/C (endpoint: mean tumor weight, dose: 200.0 mg/kg/injection, schedule: Q01DX010 (ip), vehicle: carboxymethylcellulose (CMC), higher = larger tumour): 108 % of control

CCCCNc1ncnc2c1cnn2C
T/C [6]: 63 % of control
T/C [7]: 97 % of control
T/C [2]: 57 % of control

S=P(N1CCOCC1)(N1CC1)N1CC1
T/C [6]: 82 % of control
T/C [7]: 60 % of control

CO[C@H](C(=O)[C@@H](O)[C@@H](C)O)[C@@H]1Cc2cc3cc(OC4CC(OC5CC(O)C(O)C(C)O5)C(O)C(C)O4)c(C)c(O)c3c(O)c2C(=O)[C@H]1OC1CC(OC2CC(OC3CC(C)(O)C(O)C(C)O3)C(O)C(C)O2)C(O)C(C)O1 (stereo partly specified)
T/C (endpoint: mean tumor weight, dose: 0.06 mg/kg/injection, schedule: Q01DX011 (ip), vehicle: saline, higher = larger tumour): 89 % of control and 102 % of control

— PubChem BioAssay AID290 (DTP/NCI, 2004)
